“And” between values parts separate entries of the source, which are not always exact repeats. Identical values can stand only once.
Key:
Polδ3 = assay: Immunoblotting for Polδ3 in whole cell lysates; type: cell-based; settings: U2OS cells, FIG. 24B
Procedure: The cells treated as indicated were washed twice with ice-cold PBS, collected in a spin tube, and lysed with radioimmune precipitation assay buffer supplemented with Halt protease inhibitor mixture and Halt phosphatase inhibitor mixture (Thermo Scientific) using approximately twice the volume of the cell pellet on ice for 0.5 h. Protein concentration was determined by a BCA assay (Thermo Scientific) according to the manufacturer's recommendation. Normalized amounts of samples were loaded on SDS-PAGE as indicated and electrotransferred to a PVDF membrane. The membrane was blocked with SuperBlock buffer (Thermo Scientific) and incubated with the indicated primary antibodies in SuperBlock at 4° C. overnight, rinsed with TBS, 0.05% Tween 20 three times for 10 min, incubated with the corresponding secondary IgG-HRP conjugate in SuperBlock at room temperature for 1 h, and rinsed with TBS, 0.05% Tween 20 for 15 min. Proteins probed on the membrane were visualized by chemiluminescence using WestPico reagent (Thermo Scientific) and developed on BioMax MR film (Eastman Kodak Co.).

U2OS cells [1] = assay: DNA replication assay (BrdU incorporation); type: cell-based; settings: titration of compound, 24 h, FIG. 25A-C
Procedure: DNA replication in U2OS and/or HeLa cells were analyzed by the rates of bromodeoxyuridine (BrdU) incorporation by a method reported previously (Taddei, A., et al. (1999) J. Cell Biol. 147, 1153-1166.). For immunofluorescence, cells were propagated at a subconfluent density onto a coverslip in a 6-well culture plate the day before the assay. […] During the last 15 min in the incubation period, BrdU was added at a concentration of 10 μM. Cells were washed with PBS and fixed with 4% paraformaldehyde in PBS for 15 min at room temperature. After permeabilization with 0.2% Triton X-100 in PBS for 15 min, cells were treated with 4N hydrochloric acid for 10 min and extensively rinsed with PBS. After blocking cells with 3% FBS in PBS for 20 min, anti-BrdU monoclonal antibody (1 μg/ml; clone 44, BD Pharmingen) was added to the cells and incubated at room temperature for 1 h. Cells were rinsed with PBS three times for 5 min each. Antimouse IgG conjugated with Alexa Fluor 555 (Invitrogen) was added and incubated at room temperature for 30 min. […] Fluorescence microscopy was done on an E800 microscope (Nikon) with a DXM1120 digital camera (Nikon). […] For quantitative analyses, BrdU incorporation was measured with the APC BrdU Flow Kit (BD Pharmingen) following the manufacturer's instructions. […] The populations of BrdU-positive cells (a) and mean BrdU intensity in S-phase cells (b) were recorded. […]

cells [2] = assay: Cell cycle analysis by flow cytometry (PI); type: cell-based; settings: 20 μM, 24 h, FIG. 25E
cells [3] = assay: Apoptosis analysis by flow cytometry (Annexin-V and PI); type: cell-based; design: dose or concentration left out as unconfirmed; settings: 5 days, FIG. 25G
HeLa cells = assay: Immunostaining of phospho-Chk1 and γH2AX (DNA replication stress); type: cell-based; settings: 4 h, FIG. 26A
U2OS cells [4] = assay: Chromatin immunostaining of phospho(Ser33)RPA32; type: cell-based; settings: 40 μM, 24 h, FIG. 26B
Procedure: The cells were fixed with 4% paraformaldehyde in PBS for 20 min at room temperature, rinsed three times with PBS for 5 min each, permeabilized with ice-cold methanol for 10 min at −20° C., and rinsed once with PBS for 5 min. The specimens were blocked with PBS containing 5% FBS and 0.03% Triton X-100 for 60 min, applied anti-PCNA antibody (1:3200) and anti-Polδ3 antibody (2.9 μg/ml) or anti-phospho(Ser^33)RPA32 antibody (4.0 μg/ml) in antibody buffer (PBS containing 1% FBS and 0.03% Triton X-100), incubated overnight in a humid chamber at 4° C., and rinsed with PBS three times for 5 min each at room temperature. The specimens were incubated with Alexa Fluor 555-conjugated goat anti-mouse IgG (Invitrogen) antibody (1:500) in the antibody buffer for 2 h in a humidified chamber at room temperature the dark, rinsed once with PBS for 5 min, incubated with Alexa Fluor 488-conjugated goat anti-rabbit IgG (Invitrogen) antibody (1:500) in the antibody buffer for 2 h in a humidified chamber at room temperature in the dark, and rinsed three times with PBS for 5 min. The coverslips were mounted VectaShield containing DAPI at 1 μg/ml (Vector Laboratories). Immunofluorescence imaging for chromatin was performed on a ClSi microscope (Nikon) with a Cascade 512B photomultiplier (Photometrics). Images were processed using EZC1 (Nikon) and Photoshop (Adobe) software. […]

XP2OS(SV40) cells = assay: TLS assay in mammalian cultured cells with cisplatin-cross-linked Pt-GTG plasmid; type: cell-based; settings: 5 μM of T2AA
Procedure: The cisplatin-modified plasmid was constructed, and the TLS assay was performed as previously described (14) with some modifications. Briefly, two oligonucleotides, [NT] and [NT], were annealed and inserted between the sites of EcoRV and EcoRI in pUCS[…]. The resultant plasmid was designated as pUCS[…]+ BglII. […] This oligonucleotide has the cross-link at the underlined site of [NT]. An unmodified 13-mer oligonucleotide was used for the construction of control plasmid. These oligonucleotides were purified with HPLC and PAGE. […] The gapped duplex plasmid was incubated with a 2-fold molar excess of the purified 13-mer oligonucleotide, which is complementary to the gap sequence except for a bulge in the middle in the presence of ATP (1 mM) and T4 DNA ligase (New England Biolabs, Ipswich, MA) at 16° C. for 6 min. The covalently closed circle plasmid was purified with equilibrium centrifugation on a CsCl gradient. The plasmids with and without the cisplatin adduct are hereafter referred to as Pt-GTG and Mock-GTG, respectively. […] The plasmids were extracted from the cells by using the QIAprep spin miniprep kit (Qiagen), digested with the restriction endonuclease DpnI (New England Biolabs) to remove the unreplicated plasmids, and introduced into Escherichia coli strain DH5α. The E. coli was plated onto LB agar plates containing ampicillin, X-gal, and isopropyl-β-D-thioga-lactopyranoside. […] Therefore, TLS frequency (%) was defined as (number of blue colonies/number of total colonies)×100.

U2OS cells [5] = assay: γH2AX staining by flow cytometry, T2AA and cisplatin; settings: 18 h, FIG. 28A
Procedure: For γH2AX staining, cells were cultured at 4×10^5 cells/well of 12-well plates in 1 ml of medium, treated with drugs as indicated, trypsin-lifted and stained by using the FlowCellect H2A.X DNA Damage kit (FCCH025142, Millipore) according to the manufacturer's recommendations. All samples were filtered through 40-μm nylon mesh prior to running flow cytometry.
NT, no treatment. Error bars, S.D.

U2OS cells [6] = assay: Growth of cells after treatment with cisplatin and T2AA and release (Alamar Blue); settings: 18 h, then 3 days drug-free, FIG. 28B
Procedure: The cells were treated with drugs as indicated in a black (transparent flat bottom) 384-well or 96-well plate. Cellular viability was determined by using Alamar Blue reagent (Invitrogen) on an EnVision plate reader according to the manufacturer's recommendations and normalized with signal from wells of DMSO treatment=100% and of no cells=0%.
Viability of the cells was measured by Alamar Blue reagent, and signals were normalized with those of no cell well (0%) and cells with no drugs (100%). NT, no treatment. Error bars, S.D.

N[C@H](CO)Cc1cc(I)c(Oc2ccc(O)cc2)c(I)c1 [Compound T2AA]
expression of Polδ3 protein in whole cell lysate (Polδ3): not reduced
BrdU incorporation (U2OS cells [1]): inhibited the BrdU incorporation significantly in a dose-dependent manner
cell cycle (cells [2]): arrested cells at S-phase
apoptosis (Annexin-V / PI) (cells [3]): increased cellular populations in early apoptosis but not necrosis
phosphorylation of Chk1 and H2AX (HeLa cells): phosphorylated
immunofluorescence of phospho-RPA32 in nuclei (U2OS cells [4]): increased
Mock GTG plasmid Raito (%) blue/total, Total/Average (XP2OS(SV40) cells): 36.9 (100) %
Pt-GTG plasmid Raito (%) blue/total, Total/Average (XP2OS(SV40) cells): 5.3 (14.2) %
Mock GTG plasmid Raito (%) blue/total (XP2OS(SV40) cells; single experiments): 36.0% and 34.5% and 41.0% and 37.9% and 38.1% and 34.2%
γH2AX level (DNA damage response) (U2OS cells [5]; T2AA and cisplatin together): further increased much higher than the level combined from each single treatment
γH2AX level (DNA damage response) (U2OS cells [5]; single agent): induced γH2AX only a little
reduction of U2OS cell growth (U2OS cells [6]; 10 μM T2AA alone): less than 10%
U2OS cell growth (U2OS cells [6]; cisplatin and T2AA together): significantly reduced
